In PubChem BioAssay (NCI):
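Step 1: Grow cells in 96-well plates. Step 2: Expose to compound for 48 hours at 5 concentrations. Step 3: Interpolate endpoints linearly; if unreached, use highest concentration. TGI marks complete inhibition of growth.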

Assays:
Assay in all cases: NCI anticancer screen, dose series, 48 h
786-0 renal = tested on: 786-0 renal
A498 renal = tested on: A498 renal
A549 NSCLC = tested on: A549 NSCLC
ACHN renal = tested on: ACHN renal
BT-549 breast = tested on: BT-549 breast
CAKI-1 renal = tested on: CAKI-1 renal
CCRF-CEM leukemia = tested on: CCRF-CEM leukemia
COLO 205 colon = tested on: COLO 205 colon
DU-145 prostate = tested on: DU-145 prostate
EKVX NSCLC = tested on: EKVX NSCLC
HCC-2998 colon = tested on: HCC-2998 colon
HCT-116 colon = tested on: HCT-116 colon
HCT-15 colon = tested on: HCT-15 colon
HL-60(TB) leukemia = tested on: HL-60(TB) leukemia
HOP-62 NSCLC = tested on: HOP-62 NSCLC
HOP-92 NSCLC = tested on: HOP-92 NSCLC
HS 578T breast = tested on: HS 578T breast
HT29 colon = tested on: HT29 colon
IGROV1 ovarian = tested on: IGROV1 ovarian
K-562 leukemia = tested on: K-562 leukemia
KM12 colon = tested on: KM12 colon
LOX IMVI melanoma = tested on: LOX IMVI melanoma
M14 melanoma = tested on: M14 melanoma
MCF7 breast = tested on: MCF7 breast
MDA-MB-231 breast = tested on: MDA-MB-231 breast
MDA-MB-435 = tested on: MDA-MB-435
MDA-N = tested on: MDA-N
MOLT-4 leukemia = tested on: MOLT-4 leukemia
NCI-H226 lung = tested on: NCI-H226 lung
NCI-H23 lung = tested on: NCI-H23 lung
NCI-H460 lung = tested on: NCI-H460 lung
NCI/ADR-RES ovarian = tested on: NCI/ADR-RES ovarian
OVCAR-3 ovarian = tested on: OVCAR-3 ovarian
OVCAR-4 ovarian = tested on: OVCAR-4 ovarian
OVCAR-5 ovarian = tested on: OVCAR-5 ovarian
OVCAR-8 ovarian = tested on: OVCAR-8 ovarian
PC-3 prostate = tested on: PC-3 prostate
RPMI-8226 leukemia = tested on: RPMI-8226 leukemia
RXF 393 renal = tested on: RXF 393 renal
SF-268 CNS = tested on: SF-268 CNS
SF-295 CNS = tested on: SF-295 CNS
SF-539 CNS = tested on: SF-539 CNS
SK-MEL-2 melanoma = tested on: SK-MEL-2 melanoma
SK-MEL-28 melanoma = tested on: SK-MEL-28 melanoma
SK-OV-3 ovarian = tested on: SK-OV-3 ovarian
SN12C renal = tested on: SN12C renal
SNB-19 CNS = tested on: SNB-19 CNS
SNB-75 CNS = tested on: SNB-75 CNS
SR leukemia = tested on: SR leukemia
SW-620 colon = tested on: SW-620 colon
T-47D breast = tested on: T-47D breast
TK-10 renal = tested on: TK-10 renal
U251 CNS = tested on: U251 CNS
UACC-257 melanoma = tested on: UACC-257 melanoma
UACC-62 melanoma = tested on: UACC-62 melanoma
UO-31 renal = tested on: UO-31 renal
MALME-3M melanoma = tested on: MALME-3M melanoma
NCI-H522 lung = tested on: NCI-H522 lung
SK-MEL-5 melanoma = tested on: SK-MEL-5 melanoma

Compound: Cc1cn(CCCCCOC(=O)NC(CCCN=C(N)N)C(=O)O)c(=O)[nH]c1=O (stereo not given)
- TGI (786-0 renal): > 100 µM
- TGI (A498 renal): 74.3 µM
- TGI (A549 NSCLC): > 100 µM
- TGI (ACHN renal): > 100 µM
- TGI (BT-549 breast): > 100 µM
- TGI (CAKI-1 renal): > 100 µM
- TGI (CCRF-CEM leukemia): > 100 µM
- TGI (COLO 205 colon): 63.2 µM
- TGI (DU-145 prostate): > 100 µM
- TGI (EKVX NSCLC): > 100 µM
- TGI (HCC-2998 colon): > 100 µM
- TGI (HCT-116 colon): > 100 µM
- TGI (HCT-15 colon): > 100 µM
- TGI (HL-60(TB) leukemia): > 100 µM
- TGI (HOP-62 NSCLC): > 100 µM
- TGI (HOP-92 NSCLC): > 100 µM
- TGI (HS 578T breast): 71.9 µM
- TGI (HT29 colon): 60.1 µM
- TGI (IGROV1 ovarian): > 100 µM
- TGI (K-562 leukemia): > 100 µM
- TGI (KM12 colon): > 100 µM
- TGI (LOX IMVI melanoma): > 100 µM
- TGI (M14 melanoma): > 100 µM
- TGI (MCF7 breast): > 100 µM
- TGI (MDA-MB-231 breast): > 100 µM
- TGI (MDA-MB-435): 47.5 µM
- TGI (MDA-N): 31.3 µM
- TGI (MOLT-4 leukemia): > 100 µM
- TGI (NCI-H226 lung): > 100 µM
- TGI (NCI-H23 lung): > 100 µM
- TGI (NCI-H460 lung): > 100 µM
- TGI (NCI/ADR-RES ovarian): > 100 µM
- TGI (OVCAR-3 ovarian): > 100 µM
- TGI (OVCAR-4 ovarian): > 100 µM
- TGI (OVCAR-5 ovarian): > 100 µM
- TGI (OVCAR-8 ovarian): > 100 µM
- TGI (PC-3 prostate): > 100 µM
- TGI (RPMI-8226 leukemia): 57 µM
- TGI (RXF 393 renal): > 100 µM
- TGI (SF-268 CNS): > 100 µM
- TGI (SF-295 CNS): > 100 µM
- TGI (SF-539 CNS): > 100 µM
- TGI (SK-MEL-2 melanoma): > 100 µM
- TGI (SK-MEL-28 melanoma): > 100 µM
- TGI (SK-OV-3 ovarian): > 100 µM
- TGI (SN12C renal): > 100 µM
- TGI (SNB-19 CNS): > 100 µM
- TGI (SNB-75 CNS): > 100 µM
- TGI (SR leukemia): 30.8 µM
- TGI (SW-620 colon): > 100 µM
- TGI (T-47D breast): > 100 µM
- TGI (TK-10 renal): > 100 µM
- TGI (U251 CNS): > 100 µM
- TGI (UACC-257 melanoma): > 100 µM
- TGI (UACC-62 melanoma): > 100 µM
- TGI (UO-31 renal): > 100 µM

Compound: CC(CC(=O)O)C(C(=O)O)C(=O)O (stereo not given)
- TGI (786-0 renal): > 100 µM
- TGI (A498 renal): > 100 µM
- TGI (A549 NSCLC): > 100 µM
- TGI (ACHN renal): > 100 µM
- TGI (BT-549 breast): > 100 µM
- TGI (CAKI-1 renal): > 100 µM
- TGI (CCRF-CEM leukemia): > 100 µM
- TGI (COLO 205 colon): > 100 µM
- TGI (DU-145 prostate): > 100 µM
- TGI (EKVX NSCLC): > 100 µM
- TGI (HCT-116 colon): > 100 µM
- TGI (HCT-15 colon): > 100 µM
- TGI (HL-60(TB) leukemia): > 100 µM
- TGI (HOP-62 NSCLC): > 100 µM
- TGI (HOP-92 NSCLC): > 100 µM
- TGI (HS 578T breast): > 100 µM
- TGI (HT29 colon): > 100 µM
- TGI (IGROV1 ovarian): > 100 µM
- TGI (K-562 leukemia): > 100 µM
- TGI (KM12 colon): > 100 µM
- TGI (LOX IMVI melanoma): > 100 µM
- TGI (M14 melanoma): > 100 µM
- TGI (MALME-3M melanoma): > 100 µM
- TGI (MCF7 breast): > 100 µM
- TGI (MDA-MB-231 breast): > 100 µM
- TGI (MDA-MB-435): > 100 µM
- TGI (MDA-N): > 100 µM
- TGI (MOLT-4 leukemia): > 100 µM
- TGI (NCI-H226 lung): > 100 µM
- TGI (NCI-H23 lung): > 100 µM
- TGI (NCI-H460 lung): > 100 µM
- TGI (NCI-H522 lung): > 100 µM
- TGI (NCI/ADR-RES ovarian): > 100 µM
- TGI (OVCAR-3 ovarian): > 100 µM
- TGI (OVCAR-4 ovarian): > 100 µM
- TGI (OVCAR-5 ovarian): > 100 µM
- TGI (OVCAR-8 ovarian): > 100 µM
- TGI (PC-3 prostate): > 100 µM
- TGI (RPMI-8226 leukemia): > 100 µM
- TGI (RXF 393 renal): > 100 µM
- TGI (SF-268 CNS): > 100 µM
- TGI (SF-295 CNS): > 100 µM
- TGI (SF-539 CNS): > 100 µM
- TGI (SK-MEL-2 melanoma): > 100 µM
- TGI (SK-MEL-28 melanoma): > 100 µM
- TGI (SK-MEL-5 melanoma): > 100 µM
- TGI (SK-OV-3 ovarian): > 100 µM
- TGI (SN12C renal): > 100 µM
- TGI (SNB-19 CNS): > 100 µM
- TGI (SNB-75 CNS): > 100 µM
- TGI (SR leukemia): > 100 µM
- TGI (SW-620 colon): > 100 µM
- TGI (T-47D breast): > 100 µM
- TGI (TK-10 renal): > 100 µM
- TGI (U251 CNS): > 100 µM
- TGI (UACC-257 melanoma): > 100 µM
- TGI (UACC-62 melanoma): > 100 µM
- TGI (UO-31 renal): > 100 µM

Compound: CCN(CC)C(=S)SS(=O)(=O)c1ccc(F)cc1
- TGI (786-0 renal): > 100 µM
- TGI (A498 renal): > 100 µM
- TGI (ACHN renal): > 100 µM
- TGI (BT-549 breast): > 100 µM
- TGI (CAKI-1 renal): > 100 µM
- TGI (COLO 205 colon): > 100 µM
- TGI (DU-145 prostate): > 100 µM
- TGI (EKVX NSCLC): > 100 µM
- TGI (HCC-2998 colon): > 100 µM
- TGI (HCT-116 colon): > 100 µM
- TGI (HCT-15 colon): > 100 µM
- TGI (HOP-62 NSCLC): > 100 µM
- TGI (HOP-92 NSCLC): > 100 µM
- TGI (HS 578T breast): > 100 µM
- TGI (HT29 colon): 53.9 µM
- TGI (K-562 leukemia): > 100 µM
- TGI (KM12 colon): > 100 µM
- TGI (LOX IMVI melanoma): 41.7 µM
- TGI (M14 melanoma): 60.5 µM
- TGI (MALME-3M melanoma): 68.4 µM
- TGI (MDA-MB-231 breast): > 100 µM
- TGI (MDA-MB-435): > 100 µM
- TGI (MDA-N): > 100 µM
- TGI (NCI-H226 lung): > 100 µM
- TGI (NCI-H23 lung): > 100 µM
- TGI (NCI-H460 lung): > 100 µM
- TGI (NCI-H522 lung): 0.505 µM
- TGI (NCI/ADR-RES ovarian): > 100 µM
- TGI (OVCAR-3 ovarian): > 100 µM
- TGI (OVCAR-4 ovarian): > 100 µM
- TGI (OVCAR-5 ovarian): > 100 µM
- TGI (OVCAR-8 ovarian): > 100 µM
- TGI (RPMI-8226 leukemia): 55.5 µM
- TGI (RXF 393 renal): 40.4 µM
- TGI (SF-268 CNS): > 100 µM
- TGI (SF-295 CNS): > 100 µM
- TGI (SF-539 CNS): 52.4 µM
- TGI (SK-MEL-2 melanoma): > 100 µM
- TGI (SK-MEL-28 melanoma): 30.5 µM
- TGI (SK-MEL-5 melanoma): > 100 µM
- TGI (SK-OV-3 ovarian): > 100 µM
- TGI (SN12C renal): > 100 µM
- TGI (SNB-19 CNS): > 100 µM
- TGI (SR leukemia): 57.5 µM
- TGI (SW-620 colon): 53.7 µM
- TGI (T-47D breast): > 100 µM
- TGI (TK-10 renal): > 100 µM
- TGI (U251 CNS): 73.4 µM
- TGI (UACC-257 melanoma): 87.3 µM
- TGI (UACC-62 melanoma): > 100 µM
- TGI (UO-31 renal): 72.5 µM
